Laboratory results: patent US20160299130A1, “Telocinobufagin (TCINO) in the Diagnosis and Pathogenesis of Preeclampsia, Traumatic Brain Injury and Acute Respiratory Distress Syndrome” (priority 2015, published 2016)

What was measured:
[1] = in vitro; cited from earlier work
[2] = system: rodent brain contusion model; assay: rodent brain contusion model; format: in vivo; conditions: given 1 hour after the insult
Source text: (§1) MBG is elevated in preeclampsia and traumatic brain injury. It has been shown that the administration of the antagonist of MBG, resibufagenin (RBG) is therapeutically effective. […] RBG antagonizes MBG activity and may be an effective treatment for hypertension, ARDS, traumatic brain injury, and preeclampsia.

[3] = system: animal models of preeclampsia; assay: preeclampsia in animal models; format: in vivo
Source text: as §1

Row | SMILES | vasoconstrictor action [1] | tissue injury [2] | preeclampsia [3]
1 | C[C@]12CC[C@H](O)C[C@@]1(O)CC[C@@H]1[C@@H]2CC[C@]2(C)[C@@H](c3ccc(=O)oc3)C[C@H]3O[C@]132 [MBG, marinobufagenin] | acts in vitro as a vasoconstrictor | – | –
2 | C[C@]12CC[C@H](O)C[C@H]1CC[C@@H]1[C@@H]2CC[C@]2(C)[C@@H](c3ccc(=O)oc3)C[C@H]3O[C@]132 [RBG, resibufagenin] | – | amelioration of tissue injury | prevents preeclampsia
